The conditions of series [1]: in vivo.
A short description of series [2]: Ex vivo metabolism of LAT8881 in human whole blood. The settings on record: human blood, LAT8881-spiked, 37° C.; read-out: ex vivo half-life. The series is classed as in vitro ADME. The protocol: (§1) Human or rat blood was collected into K2EDTA tubes and approximately 2.94 mL of blood was transferred into a polypropylene tube and kept in a water bath at 37° C. […] At the indicated times, approximately 300 μL of the spiked blood sample was transferred into a vial containing 30 μL of OX Protease Inhibitor Cocktail (Sigma Aldrich; Product No. P2714), mixed well and centrifuged at 4° C. The plasma fraction was then collected, transferred into polypropylene tubes and stored at -80° C. […] […] NO:11)) and vortex-mixed with 200 μL of acetonitrile for 5 min at 1500 rpm. The resulting mixture was then centrifuged at 14000 rpm for 5 min and the supernatant was evaporated at 37° C. under a stream of nitrogen to dryness. The residue was reconstituted in 150 μL of reconstitution solution and approximately 150 μL of the reconstituted sample was transferred to a 96 well-plate for injection into the LC-MS system. […] The mobile phase was (a) 5% acetonitrile/water with 0.1% formic acid, and (b) 95% acetonitrile/water with 0.1% formic acid. Eluted peaks were analysed using mass spectrometry. For the analysis of LAT9998 (SEQ ID NO:11), a 5 μL aliquot of each plasma sample was injected into a Shimadzu Nexera UPLC system equipped with a Phenomenex Aeris Peptide XB-C18, 3.6 μm, 150×2.1 mm. The mobile phase was (a) 5% acetonitrile/water with 0.1% formic acid, and (b) 95% acetonitrile/water with 0.1% formic acid. Eluted peaks were analysed using mass spectrometry. Samples were analysed using an AB Sciex QTrap 5500 mass spectrometer with ESI in positive mode. MRM analyses were conducted with Ion Spray (IS) at 5500 V and the Curtain Gas (CUR) was set at 20. Multiple MRM transitions were monitored to ensure the chromatographic peaks observed are from the nominal compound. Results are reported as analyte peak area ratios (normalized versus internal standard peak area).

The nature of series [3]: Ex vivo metabolism of LAT8881 in rat whole blood. In kind it is in vitro ADME. The settings on record: rat blood, LAT8881-spiked, 37° C.; read-out: ex vivo half-life. The protocol:
as §1

Where two headings read alike, the source gives them in different places. Positions of bridges follow the written chain, without caps; N, C: chain ends. Residues, ends and D or L forms follow the SMILES beside them.

Broadly, the half-life is how long it takes for the measured level to halve. With `CC[C@H](C)[C@H](NC(=O)[C@H](CCCNC(=N)N)NC(=O)[C@H](CC(C)C)NC(=O)[C@@H](N)Cc1ccc(O)cc1)C(=O)N[C@H](C(=O)N[C@@H](CCC(N)=O)C(=O)N[C@H]1CSSC[C@@H](C(=O)NCC(=O)N[C@@H](Cc2ccccc2)C(=O)O)NC(=O)[C@H](CO)NC(=O)CNC(=O)[C@H](CCC(=O)O)NC(=O)[C@H](C(C)C)NC(=O)[C@H](CO)NC(=O)[C@H](CCCNC(=N)N)NC1=O)C(C)C` [LAT8881, YLRIVQCRSVEGSCGF] (H-YLRIVQCRSVEGSCGF-OH; disulfide 7-14; N-terminus and C-terminus assumed), the half-life was less than 1 min in series [1], 3 to 6 min in series [2] and 3 to 6 min in series [3].
